# Patent publication US20240190821A1, “SULFONAMIDE SUBSTITUTED N-(1H-INDOL-7-YL)BENZENESULFONAMIDES AND USES THEREOF” (Triana Biomedicines, Inc., priority 2021, published 2024)
# Where two headings read alike, the source gives them in different places.
# Key:
# [1] = target: T1, DCAF15-RBM39 ternary complex (Homo sapiens, UniProt Q14498+Q66K64); assay: Compound-induced DCAF15-RBM39 ternary complex formation, AlphaLISA; format: biochemical
# T1 construct: (RRM2)
# Description: Compound-induced DCAF15-RBM39 ternary complex formation was monitored using AlphaLISA® assays (Perkin Elmer, Waltham, MA). […] 9.8 ul of this protein mixture was then mixed with the compounds in the assay plate and incubated for one hour at room temperature. Reaction mixtures with no compounds added were included as negative controls, while a His-tagged and biotinylated GST protein was included to track general assay performance. […] The beads were then added to the assay plate sequentially with incubation at room temperature for 1-2 hours after each addition.
# DCAF15 = DCAF15 (Homo sapiens, UniProt Q66K64); assay: Binary interaction between compounds and DCAF15, HTRF competition assay; format: binding
# Description: DCAF15 interactions with test compounds were monitored using HTRF competition assays (Cisbio, Bedford, MA). […] These two solutions were mixed and incubated for 15 min at room temperature. 9.8 ul of the tracer solution and 10 ul of the DCAF15/mAb Anti-6His-Eu cryptate Gold mixture were added sequentially to each well in the assay plate. Reaction mixtures with no DCAF15 added were included as […] controls. […] Binding was estimated based on ratiometric analysis and titration curves were generated in GraphPad Prism (7.00, GraphPad, La Jolla, CA).
# [2] = AlphaLISA, His-tagged DCAF15 complex and biotin-carrying RBM39, read-out: Ternary-RBM39 (RRM2) EC50
# [3] = HTRF competition with Alexa Fluor 647 tracer, His-tagged DCAF15 complex, read-out: DCAF15 IC50
# T1 sequence (Q66K64 whole entry): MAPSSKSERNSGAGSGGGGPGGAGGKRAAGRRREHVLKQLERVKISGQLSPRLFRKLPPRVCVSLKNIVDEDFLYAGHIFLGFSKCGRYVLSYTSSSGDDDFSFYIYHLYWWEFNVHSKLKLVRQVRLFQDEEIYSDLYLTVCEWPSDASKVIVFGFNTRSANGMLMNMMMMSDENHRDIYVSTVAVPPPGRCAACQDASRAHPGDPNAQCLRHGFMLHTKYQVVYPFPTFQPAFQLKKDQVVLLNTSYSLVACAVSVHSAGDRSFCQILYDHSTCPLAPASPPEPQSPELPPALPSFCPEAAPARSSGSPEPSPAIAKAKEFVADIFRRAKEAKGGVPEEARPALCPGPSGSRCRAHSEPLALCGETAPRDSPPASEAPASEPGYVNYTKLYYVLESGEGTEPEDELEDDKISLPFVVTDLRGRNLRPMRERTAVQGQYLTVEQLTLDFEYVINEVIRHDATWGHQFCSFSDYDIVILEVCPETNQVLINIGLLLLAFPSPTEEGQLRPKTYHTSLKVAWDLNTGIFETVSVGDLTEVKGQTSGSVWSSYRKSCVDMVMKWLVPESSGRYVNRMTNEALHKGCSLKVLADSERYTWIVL
# T1 sequence (Q14498 250-328 limits assumed): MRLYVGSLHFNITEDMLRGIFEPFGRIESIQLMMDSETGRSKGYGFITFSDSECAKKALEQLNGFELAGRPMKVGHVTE
# T1 sequence (Q16531 whole entry partner): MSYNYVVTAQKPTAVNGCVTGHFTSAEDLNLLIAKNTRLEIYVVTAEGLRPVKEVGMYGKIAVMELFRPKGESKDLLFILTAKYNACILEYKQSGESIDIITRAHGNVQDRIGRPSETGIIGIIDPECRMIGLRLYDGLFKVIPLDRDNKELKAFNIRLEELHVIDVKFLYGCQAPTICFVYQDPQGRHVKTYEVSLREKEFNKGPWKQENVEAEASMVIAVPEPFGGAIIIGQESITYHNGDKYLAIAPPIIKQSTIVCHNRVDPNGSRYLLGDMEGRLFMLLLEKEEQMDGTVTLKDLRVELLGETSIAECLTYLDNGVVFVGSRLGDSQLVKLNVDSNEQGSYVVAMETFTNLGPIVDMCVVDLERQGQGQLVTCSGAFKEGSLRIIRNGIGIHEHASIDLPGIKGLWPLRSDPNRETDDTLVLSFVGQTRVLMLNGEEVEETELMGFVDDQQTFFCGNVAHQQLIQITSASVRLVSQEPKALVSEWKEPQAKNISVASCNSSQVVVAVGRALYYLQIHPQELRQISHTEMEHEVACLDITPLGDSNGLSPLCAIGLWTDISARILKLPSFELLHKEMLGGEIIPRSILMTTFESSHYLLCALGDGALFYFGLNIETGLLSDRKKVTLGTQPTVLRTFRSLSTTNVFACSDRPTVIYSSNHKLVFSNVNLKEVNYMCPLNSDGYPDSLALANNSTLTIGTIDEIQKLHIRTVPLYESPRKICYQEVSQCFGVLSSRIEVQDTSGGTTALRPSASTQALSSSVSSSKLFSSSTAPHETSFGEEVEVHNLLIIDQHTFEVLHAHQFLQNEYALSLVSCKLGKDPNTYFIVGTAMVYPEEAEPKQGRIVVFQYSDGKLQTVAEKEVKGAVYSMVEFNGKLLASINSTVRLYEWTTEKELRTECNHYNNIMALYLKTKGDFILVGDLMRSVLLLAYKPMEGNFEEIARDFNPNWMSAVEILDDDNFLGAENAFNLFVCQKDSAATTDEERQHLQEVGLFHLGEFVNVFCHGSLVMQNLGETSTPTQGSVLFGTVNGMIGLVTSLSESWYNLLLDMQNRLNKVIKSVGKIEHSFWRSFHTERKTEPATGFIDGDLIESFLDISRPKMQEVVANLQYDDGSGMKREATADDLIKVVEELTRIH
# DCAF15, sequence (Q66K64 whole entry): as the sequence (Q66K64 whole entry) above
# DCAF15, sequence (Q16531 whole entry partner): as the sequence (Q16531 whole entry partner) above
Compound,"EC50 [1, 2]",IC50 (DCAF15; [3]),EC50 [1],IC50 (DCAF15)
"O=S(=O)(NCC1CCN(CCCc2ccccc2)CC1)c1ccc(S(=O)(=O)Nc2ccc(Cl)c3c(Cl)c[nH]c23)cc1 [Compound 10, N^1-(3,4-dichloro-1H-indol-7-yl)-N^4-((1-(3-phenylpropyl)piperidin-4-yl)methyl)benzene-1,4-disulfonamide]",< 1 µM,< 5 µM,–,–
"CN(C)C(=O)CC(NS(=O)(=O)c1ccc(S(=O)(=O)Nc2ccc(Cl)c3c(Cl)c[nH]c23)cc1)c1ccccc1 (stereo not shown) [Compound 11, 3-((4-(N-(3,4-dichloro-1H-indol-7-yl)sulfamoyl)phenyl)sulfonamido)-N,N-dimethyl-3-phenylpropanamide]",< 20 µM,< 5 µM,–,–
"CC(C)C(=O)Nc1cccc(CNS(=O)(=O)c2ccc(S(=O)(=O)Nc3ccc(Cl)c4c(Cl)c[nH]c34)cc2)c1 [Compound 13, N-(3-(((4-(N-(3,4-dichloro-1H-indol-7-yl)sulfamoyl)phenyl)sulfonamido)methyl)phenyl) isobutyramide]",< 20 µM,< 20 µM,–,–
"CCC(NS(=O)(=O)c1ccc(S(=O)(=O)Nc2ccc(Cl)c3c(Cl)c[nH]c23)cc1)c1ccc2c(c1)OCCO2 (stereo not shown) [Compound 14, N1-(3,4-dichloro-1H-indol-7-yl)-N^4-(1-(2,3-dihydrobenzo[b][1, 4]dioxin-6-yl)propyl)benzene-1,4-disulfonamide]",< 20 µM,< 20 µM,–,–
"Cc1cc(CNS(=O)(=O)c2ccc(S(=O)(=O)Nc3ccc(Cl)c4c(Cl)c[nH]c34)cc2)nn1C [Compound 15, N^1-(3,4-dichloro-1H-indol-7-y1)-N^4-((1,5-dimethyl-1H-pyrazol-3-yl)methyl)benzene-1,4-disulfonamide]",< 20 µM,< 5 µM,–,–
"Cc1ccnc(CNS(=O)(=O)c2ccc(S(=O)(=O)Nc3ccc(Cl)c4c(Cl)c[nH]c34)cc2)c1 [Compound 16, N^1-(3,4-dichloro-1H-indol-7-yl)-N^4-((4-methylpyridin-2-yl)methyl)benzene-1,4-disulfonamide]",< 20 µM,< 5 µM,–,–
"COc1cccc(Oc2ccc(CNS(=O)(=O)c3ccc(S(=O)(=O)Nc4ccc(Cl)c5c(Cl)c[nH]c45)cc3)cn2)c1 [Compound 17, N^1-(3,4-dichloro-1H-indol-7-yl)-N^4-((6-(3-methoxyphenoxy)pyridin-3-yl)methyl)benzene-1,4-disulfonamide]",< 20 µM,< 20 µM,–,–
"Cc1ccnc(C(NS(=O)(=O)c2ccc(S(=O)(=O)Nc3ccc(Cl)c4c(Cl)c[nH]c34)cc2)C2CC2)c1 (stereo not shown) [Compound 18, N^1-(cyclopropyl(4-methylpyridin-2-yl)methyl)-N^4-(3,4-dichloro-1H-indol-7-yl)benzene-1,4-disulfonamide]",< 5 µM,< 20 µM,–,–
"Cc1cnc(CNS(=O)(=O)c2ccc(S(=O)(=O)Nc3ccc(Cl)c4c(Cl)c[nH]c34)cc2)cn1 [Compound 19, N^1-(3,4-dichloro-1H-indol-7-yl)-N4_ ((5-methylpyrazin-2-yl)methyl)benzene-1,4-disulfonamide]",< 1 µM,< 5 µM,–,–
"CCc1nc(CN(C)S(=O)(=O)c2ccc(S(=O)(=O)Nc3ccc(Cl)c4c(Cl)c[nH]c34)cc2)no1 [Compound 20, N^1-(3,4-dichloro-1H-indol-7-yl)-N^4-((5-ethyl-1,2,4-oxadiazol-3-yl)methyl)-N4. methylbenzene-1,4-disulfonamide]",< 5 µM,< 5 µM,–,–
"CN1CC(CCNS(=O)(=O)c2ccc(S(=O)(=O)Nc3ccc(Cl)c4c(Cl)c[nH]c34)cc2)C1 [Compound 22, N^1-(3,4-dichloro-1H-indol-7-y1)-N^4-(2-(1-methylazetidin-3-yl)ethyl)benzene-1,4-disulfonamide]",< 1 µM,< 5 µM,–,–
"CN(C)C(=O)c1ccc(CCNS(=O)(=O)c2ccc(S(=O)(=O)Nc3ccc(Cl)c4c(Cl)c[nH]c34)cc2)cc1 [Compound 23, 4-(2-((4-(N-(3,4-dichloro-1H-indol-7-yl)sulfamoyl)pheny 1)sulfonamido)ethyl)-N,N-dimethylbenzamide]",< 5 µM,< 20 µM,–,–
"Cc1ccc(CCNS(=O)(=O)c2ccc(S(=O)(=O)Nc3ccc(Cl)c4c(Cl)c[nH]c34)cc2)o1 [Compound 25, N^1-(3,4-dichloro-1H-indol-7-yl)-N4_ (2-(5-methylfuran-2-yl)ethyl)benzene-1,4-disulfonamide]",< 20 µM,< 20 µM,–,–
"O=C(CCCNS(=O)(=O)c1ccc(S(=O)(=O)Nc2ccc(Cl)c3c(Cl)c[nH]c23)cc1)N1CCCC1 [Compound 27, N^1-(3,4-dichloro-1H-indol-7-yl)-N^4-(4-oxo-4-(pyrrolidin-1-yl)butyl)benzene-1,4-disulfonamide]",< 1 µM,< 5 µM,–,–
"O=S(=O)(Nc1ccc(Cl)c2c(Cl)c[nH]c12)c1ccc(S(=O)(=O)NC2CCOCC2)cc1 [Compound 28, N^1-(3,4-dichloro-1H-indol-7-yl)-N^4-(tetrahydro-2H-pyran-4-yl)benzene-1,4-disulfonamide]",< 1 µM,< 100 µM,–,–
"CCCN(C1CCNCC1)S(=O)(=O)c1ccc(S(=O)(=O)Nc2ccc(Cl)c3c(Cl)c[nH]c23)cc1 [Compound 30, N^1-(3,4-dichloro-1H-indol-7-yl)-N^4-(piperidin-4-yl)-N^4-propylbenzene-1,4-disulfonamide]",< 1 µM,< 5 µM,–,–
"O=C1CCC(NS(=O)(=O)c2ccc(S(=O)(=O)Nc3ccc(Cl)c4c(Cl)c[nH]c34)cc2)CN1 (stereo not shown) [Compound 31, N^1-(3,4-dichloro-1H-indol-7-yl)-N^4-(6-oxopiperidin-3-yl)benzene-1,4-disulfonamide]",< 1 µM,< 5 µM,–,–
"CN1CC(NS(=O)(=O)c2ccc(S(=O)(=O)Nc3ccc(Cl)c4c(Cl)c[nH]c34)cc2)CCC1=O (stereo not shown) [Compound 32, N^1-(3,4-dichloro-1H-indol-7-yl)-N^4-(1-methyl-6-oxopiperidin-3-yl)benzene-1,4-disulfonamide]",< 1 µM,< 5 µM,–,–
"O=C1NCCCCC1NS(=O)(=O)c1ccc(S(=O)(=O)Nc2ccc(Cl)c3c(Cl)c[nH]c23)cc1 (stereo not shown) [Compound 33, N^1-(3,4-dichloro-1H-indol-7-yl)-N^4-(2-oxoazepan-3-yl)benzene-1,4-disulfonamide]",< 1 µM,< 5 µM,–,–
"O=S(=O)(Nc1ccc(Cl)c2c(Cl)c[nH]c12)c1ccc(S(=O)(=O)N2CCC(n3ccnn3)C2)cc1 (stereo not shown) [Compound 36, 4-((3-(1H-1,2,3-triazol-1-yl)pyrrolidin-1-yl)sulfonyl)-N-(3,4-dichloro-1H-indol-7-yl)benzenesulfonamide]",< 5 µM,< 5 µM,–,–
"O=S(=O)(Nc1ccc(Cl)c2c(Cl)c[nH]c12)c1ccc(S(=O)(=O)N2CCC(O)CC2)cc1 [Compound 38, N-(3,4-dichloro-1H-indol-7-yl)-4-((4-hydroxypiperidin-1-yl)sulfonyl)benzene sulfonamide]",< 1 µM,< 5 µM,–,–
"O=S(=O)(Nc1ccc(Cl)c2c(Cl)c[nH]c12)c1ccc(S(=O)(=O)N2CCC(Oc3cccnc3)CC2)cc1 [Compound 39, N-(3,4-dichloro-1H-indol-7-yl)-4-((4-(pyridin-3-yloxy)piperidin-1-yl)sulfonyl)benzene sulfonamide]",< 5 µM,< 20 µM,–,–
"N#Cc1cc(S(=O)(=O)Nc2ccc(Cl)c3c(Cl)c[nH]c23)ccc1S(=O)(=O)N1CCNCC1 [Compound 43, 3-cyano-N-(3,4-dichloro-1H-indol-7-yl)-4-(piperazin-1-ylsulfonyl)benzenesulfonamide]",< 1 µM,< 5 µM,–,–
"O=S(=O)(Nc1ccc(Cl)c2c(Cl)c[nH]c12)c1ccc(S(=O)(=O)N2CCNCC2)cc1F [Compound 44, N-(3,4-dichloro-1H-indol-7-yl)-2-fluoro-4-(piperazin-1-ylsulfonyl)benzenesulfonamide]",< 1 µM,< 5 µM,–,–
"O=S(=O)(Nc1ccc(Cl)c2c(Cl)c[nH]c12)c1ccc(S(=O)(=O)N2CCNCC2)c(F)c1 [Compound 45, N-(3,4-dichloro-1H-indol-7-yl)-3-fluoro-4-(piperazin-1-ylsulfonyl)benzenesulfonamide]",< 1 µM,< 5 µM,–,–
"CCCC1CNCCN1S(=O)(=O)c1ccc(S(=O)(=O)Nc2ccc(Cl)c3c(Cl)c[nH]c23)cc1 (stereo not shown) [Compound 47, N-(3,4-dichloro-1H-indol-7-yl)-4-((2-propylpiperazin-1-yl)sulfonyl)benzenesulfonamide]",< 1 µM,< 5 µM,–,–
"O=S(=O)(Nc1ccc(Cl)c2c(Cl)c[nH]c12)c1ccc(S(=O)(=O)N2CCN(CCOCCc3ccccn3)CC2)cc1 [Compound 51, N-(3,4-dichloro-1H-indol-7-yl)-4-((4-(2-(2-(pyridin-2-yl)ethoxy)ethyl)piperazin-1-yl)sulfonyl)benzenesulfonamide]",–,–,< 1 µM,< 20 µM
"O=S(=O)(Nc1ccc(Cl)c2c(Cl)c[nH]c12)c1ccc(S(=O)(=O)N2CCCNCC2)cc1 [Compound 52, 4-((1,4-diazepan-1-yl)sulfonyl)-N-(3,4-dichloro-1H-indol-7-yl)benzene sulfonamide]",< 1 µM,< 5 µM,–,–
"Cc1nc2c(n1C)CCN(S(=O)(=O)c1ccc(S(=O)(=O)Nc3ccc(Cl)c4c(Cl)c[nH]c34)cc1)C2 [Compound 53, N-(3,4-dichloro-1H-indol-7-yl)-4-((1,2-dimethyl-1,4,6,7-tetrahydro-5H-imidazo[4,5-c]pyridin-5-yl)sulfonyl)benzene sulfonamide]",< 5 µM,< 5 µM,–,–
